The source of these data is EP2204363A1, “New disubstituted phenylpiperidines/piperazines as modulators of dopamine neurotransmission” (NSAB, Filial af NeuroSearch Sweden AB, Sverige, priority 2004, dated 2005).

The subject of series [1] is DOPAC (3,4-dihydroxyphenylacetic acid) in the rat striatum. Nature of the series: In vivo neurochemistry: increase of DOPAC in the rat striatum. The conditions noted are these: for ED50: read-out: ED50 DOPAC. The source says:
After the behavioural activity sessions, the rats were decapitated and their brains rapidly taken out and put on an ice-cold petri-dish. The limbic forebrain, the striatum, the frontal cortex and the remaining hemispheral parts of each rat were dissected and frozen. Each brain part was subsequently analyzed with respect to its content of monoamines and their metabolites.
The monoamine transmitter substances (NA (noradrenaline), DA (dopamine), 5-HT (serotonin)) as well as their amine (NM (normethanephrine), 3-MT (3-methoxytyramine)) and acid (DOPAC (3,4-dihydroxyphenylacetic acid), 5-HIAA (5-hydroxyindoleacetic acid), HVA (homovanillic acid)) metabolites are quantified in brain tissue homogenates by HPLC separations and electrochemical detection
The analytical method is based on two chromatographic separations dedicated for amines or acids. Two chromatographic systems share a common auto injector with a 10-port valve and two sample loops for simultaneous injection on the two systems. Both systems are equipped with a reverse phase column (Luna C18(2), dp […], 50*2mm i.d., Phenomenex) and electrochemical detection is accomplished at two potentials on glassy carbon electrodes (MF-1000, Bioanalytical Systems, Inc.). The column effluent is passed via a T-connection to the detection cell or to a waste outlet. This is accomplished by two solenoid valves, which block either the waste or detector outlet. By preventing the chromatographic front from reaching the detector, better detection conditions are achieved. […] Detection potentials relative to Ag/AgCl reference are 0.45 and 0.60V. […] Detection potentials relative to Ag/AgCl reference are 0.45 and 0.65V.
ED50 values for the increase of DOPAC in striatum are calculated by curve fitting.

Another series deals with drug-naive rats. Nature of the series: In vivo behaviour: locomotor activity in drug-naive rats. The conditions noted are these: ± SEM. An excerpt: (§1) Photobeam sensors were spaced 2.5 cm apart.
Series [2] in a line: Metabolic stability in rat liver microsomes. The format is in vitro ADME. The settings on record: pH 7.4, 37 °C, NADPH, fraction of test compound eliminated after 15 minutes, read-out: turnover at 15 minutes. How it is done: The protein precipitation was then removed by rejecting the pellet after centrifugation at 10.000 g for 10 minutes (Heraeus, Biofuge fresco) in 4°C. The test compound was analysed using HPLC-MS (Hewlett-Packard 1100MSD Series) with a Zorbax SB-C18 column (2.1*150 mm, 5 µm) using 0.03% formic acid and acetonitrile as mobile phase (gradient) or a Zorbax Eclipse XDB-C18 (3*75 mm, 3.5µm) using 0.03% acetic acid and acetonitrile as mobile phase (gradient).
In general terms: Liver microsomes are vesicles of endoplasmic reticulum, rich in cytochrome P450 enzymes.

The nature of series [3]: Activity of compounds of Formula 1 (test not specified).
A further series relates to MK-801 pre-treated rats. Nature of the series: In vivo behaviour: locomotor activity in MK-801 pre-treated rats. The conditions noted are these: MK-801 0.7 mg/kg i.p. 90 minutes before test compound, 30 to 60 minutes after administration, ± SEM.
Source text: as §1

Series [4] concerns levels of dopamine and norepinephrine in the cortex. Nature of the series: Microdialysis in awake and freely moving rats (cortex). The conditions noted are these: percent of control in relation to baseline. The format is in vivo.
Where [5] appears, read: sc, estimated ED50 on increase of DOPAC in rat striatum after systemic administration (s.c.), maximal effects limited to 350 - 400% of control, range covers 95% of fits.
[6] abbreviates: drug-naive rats, 11 µmol/kg, recorded for 60 minutes.
The mark [7] stands for this setting: drug-naive rats, 33 µmol/kg, recorded for 60 minutes.
The mark [8] stands for this setting: drug-naive rats, 100 µmol/kg, recorded for 60 minutes.
Setting [9] is: drug-naive habituated rats, 11 µmol/kg, recorded between 30 and 60 minutes.
Setting [10] is: drug-naive habituated rats, 33 µmol/kg, recorded between 30 and 60 minutes.
The mark [11] stands for this setting: drug-naive habituated rats, 100 µmol/kg, recorded between 30 and 60 minutes.

Read-outs that look alike come from different tables or passages of the source.

As usually defined, the ED50 is the midpoint of the dose-response relation. Consider `CCCN1CCC(c2cccc(S(C)(=O)=O)c2C)CC1` [Example 4, 4-[2-METHYL-3-(METHYLSULFONYL)PHENYL]-1-PROPYLPIPERIDINE], for which the ED50 in series [1] (setting [5]) was 58 µmol/kg. For the same molecule, the Locomotor activity in the series with drug-naive rats (setting [6]) is listed as 8972 ± 1124 counts/60 min; in the series on drug-naive rats (setting [7]), 9023 ± 1415 counts/60 min; with drug-naive rats (setting [8]) it was 4473 ± 924 counts/60 min. For the same molecule, the metabolised at 0.25 h in series [2] is 4%.
For the molecule `CCCN1CCC(c2cccc(S(C)(=O)=O)c2C(F)(F)F)CC1` [4-[3-(methylsulfonyl)-2-(trifluoromethyl)phenyl]-1-propylpiperidine], the outcome in series [3] was inactive.
`CCCN1CCC(c2cccc(S(C)(=O)=O)c2Cl)CC1` [Example 3, 4-[2-CHLORO-3-(METHYLSULFONYL)PHENYL]-1-PROPYLPIPERIDINE]: the ED50 in series [1] (setting [5]) was 9.9 µmol/kg. The “Locomotor activity, MK + example” value in the series on MK-801 pre-treated rats (100 µmol/kg (footnote 1)) is given as 4911 ± 2953^1 (P=0.08) counts/30 min. The values for the Locomotor activity in the series on drug-naive rats (setting [6]), in the series with drug-naive rats (setting [7]) and in the series on drug-naive rats (setting [8]) were 6078 ± 605 counts/60 min, 3023 ± 246 counts/60 min and 1327 ± 299 counts/60 min, respectively.
As to `CCCN1CCC(c2cccc(C(F)(F)F)c2C#N)CC1` [Example 7, 2-(1-PROPYLPIPERIDIN-4-YL)-6-(TRIFLUOROMETHYL)BENZONITRILE], the median effective dose (ED50) in series [1] (setting [5]) was 9.7 µmol/kg. Also, the Locomotor activity in the series on drug-naive rats (setting [6]) came out at 7008 ± 700 counts/60 min; in the series on drug-naive rats (setting [7]) it was 4694 ± 986 counts/60 min; in the series on drug-naive rats (setting [8]), 2829 ± 358 counts/60 min. For the same molecule, in series [2], the metabolised at 0.25 h is 22%.
With `CCCN1CCC(c2cccc(C(F)(F)F)c2)CC1` [reference compound], the “ED50 DOPAC” value in series [1] (estimated ED50 on increase of DOPAC in rat striatum after systemic administration (s.c.), maximal effects limited to 350 - 400% of control, range covers 95% of fits) is on record as 84 (47 - 110) µmol/kg.
Regarding `CCCN1CCN(c2cccc(C#N)c2C(F)(F)F)CC1` [Example 14, 3-(4-PROPYLP I PE RAZI N-1-YL)-2-(TRI FLUORO-M ETHYL)B ENZON ITRI LE], the ED50 in series [1] (Rattus norvegicus, sc) was 2.4 µmol/kg.
As to `CCN1CCC(c2cccc(S(C)(=O)=O)c2)CC1` [Example 12 of WO01/46145, reference compound], in series [1] (setting [5]), the ED50 is 154 µmol/kg.
The same measure, in the same setting: to `CCCN1CCC(c2cccc(S(C)(=O)=O)c2C#N)CC1` [Example 15, 2-(METHYLSULFONYL)-6-(1-PROPYLPIPERIDIN-4-YL)BENZONITRILE] belongs 28 µmol/kg.
Consider `CCCN1CCC(c2cccc(C#N)c2C(F)(F)F)CC1` [Example 13, 3-(1-PROPYLPIPERIDIN-4-YL)-2-(TRIFLUORO-METHYL)BENZONITRILE], for which the Locomotor activity in the series on drug-naive rats (setting [9]) is reported as 960 ± 710 counts/30 min; in the series with drug-naive rats (setting [10]), 2870 ± 613 (P=0.008) counts/30 min; in the series with drug-naive rats (setting [11]), 4366 ± 1389 (P=0.030) counts/30 min.
With `CCCN1CCC(c2cccc(S(C)(=O)=O)c2F)CC1` [Example 1, 4-[2-FLUORO-3-(METHYLSULFONYL)PHENYL]-1-PROPYLPIPERIDINE], the ED50 in series [1] (setting [5]) is 28 µmol/kg. For the same molecule, the “Locomotor activity, MK + example” value in the series with MK-801 pre-treated rats (33 µmol/kg) is listed as 29636 ± 10019 (P=0.08) counts/30 min. The Locomotor activity in the series with drug-naive rats (setting [9]) is 1708 ± 922 counts/30 min; with drug-naive rats (setting [10]) it was 1337 ± 141 (P=0.001) counts/30 min; with drug-naive rats (setting [11]), 1365 ± 460 (P=0.057) counts/30 min; in the series on drug-naive rats (setting [6]), 9500 ± 617 counts/60 min; in the series on drug-naive rats (setting [7]) it was 7371 ± 992 counts/60 min; in the series with drug-naive rats (setting [8]), 8103 ± 1047 counts/60 min. Also, the metabolised at 0.25 h in series [2] was found to be 3%.
Regarding `CCCN1CCN(c2cccc(Cl)c2Cl)CC1` [Example 11, 1-(2,3-DICHLOROPHENYL)-4-PROPYLPIPERAZINE], the ED50 in series [1] (Rattus norvegicus, sc) stood at 3.5 µmol/kg. The Locomotor activity was 5149 ± 374 counts/60 min in the series on drug-naive rats (setting [6]), 4032 ± 828 counts/60 min with drug-naive rats (setting [7]) and 3299 ± 637 counts/60 min in the series on drug-naive rats (setting [8]).
With `COCCN1CCN(c2cccc(C(F)(F)F)c2F)CC1` [Example 10, 1-[2-FLUORO-3-(TRIFLUOROMETHYL)PHENYL]-4-(2-METHOXYETHYL)PIPERAZINE], the ED50 in series [1] (Rattus norvegicus, sc) stood at 6.2 µmol/kg.
As to `CCN1CCC(c2cccc(S(C)(=O)=O)c2F)CC1` [Example 2, 1-ETHYL-4-[2-FLUORO-3-(METHYLSULFONYL)PHENYL]-PIPERIDINE], the “levels of dopamine and norepinephrine in the cortex” value in series [4] (Figure 2: 50 mol/kg s.c. (so in the source), pf. cortex) is “elevate the levels of dopamine and norepinephrine in the cortex”. Also, the metabolised at 0.25 h in series [2] was determined as 1%.
For `CCCN1CCC(c2cccc(C(F)(F)F)c2OC)CC1` [Example 8, 4-[2-METHOXY-3-(TRIFLUOROMETHYL)PHENYL]-1-PROPYLPIPERIDINE], the metabolised at 0.25 h in series [2] amounted to 49%.
Regarding `CN1CCN2c3ncccc3Cc3ccccc3C2C1` (stereo not drawn) [mirtazapine, reference compound], the “extracellullar norepinephrine and dopamine in the cortex” value in series [4] (Figure 1: Remeron 10mg/kg s.c., cortex) was “increase predominantly extracellullar norepinephrine and dopamine in the cortex”.
For `CCCN1CCN(c2cccc(C(F)(F)F)c2F)CC1` [Example 9, 1-[2-FLUORO-3-(TRIFLUOROMETHYL)PHENYL]-4-PROPYLPIPERAZINE], in series [1] (Rattus norvegicus, sc), the ED50 was found to be 1.9 µmol/kg. In addition, the “Locomotor activity, MK + example” value in the series with MK-801 pre-treated rats (11 µmol/kg (footnote 2)) was 5916± 1918^2 (P=0.002) counts/30 min. Further, the Locomotor activity is 3721 ± 242 counts/60 min in the series with drug-naive rats (setting [6]), 3518 ± 435 counts/60 min in the series with drug-naive rats (setting [7]) and 4265 ± 758 counts/60 min in the series with drug-naive rats (setting [8]).
With `CCCN1CCC(c2ccc(Cl)c(C(F)(F)F)c2)CC1` [Example 9 of WO01/46146, reference compound], the ED50 in series [1] (Rattus norvegicus) is 40 µmol/kg.
On to `CCCN1CCC(c2ccc(F)c(C(F)(F)F)c2)CC1` [Example 43 of WO01/46146, reference compound], for which the ED50 in series [1] (estimated ED50 on increase of DOPAC in rat striatum, maximal effects set to 200% of control, range covers 95% of fits) is 35 µmol/kg.
